# Values of other authors as cited in article PMC7395068, “The evolution of strategies to minimise the risk of human drug-induced liver injury (DILI) in drug discovery and development” (Archives of Toxicology, 2020).
# Where two headings read alike, the source gives them in different places.
# How the values were obtained:
# [1] = cited from earlier work
# [2] = cited from earlier work; remark: listed apart in the source
# [3] = cited from earlier work; remark: listed apart in the source
# [4] = tested on: THLE or HepG2 cells, isolated mitochondria, BSEP; details: ref Aleo 2019, cited from earlier work
# [5] = LTKB DILIrank category, ref Chen 2016
# [6] = binary DILI call, ref Chen 2016
# [7] = FDA drug labelling score, ref Chen 2011
# [8] = binary in vivo human DILI call, ref Chen 2016
# [9] = human DILI, LTKB DILIrank category, ref Chen 2016
# [10] = FDA drug labelling score, scale 1-8, ref Chen 2011
# [11] = binary in vivo DILI call given beside the severity category, ref Chen 2016
# [12] = human DILI concern category (LTKB DILIrank), ref Chen 2016
# [13] = score by FDA drug labelling, scale 1-8, ref Chen 2011
structure (smiles),measurement,setting,value
C[C@H]1O[C@H](O[C@H]2[C@H](O)[C@@H](O)[C@@H](O[C@H]3[C@H](O)[C@@H](O)C(O)O[C@@H]3CO)O[C@@H]2CO)[C@H](O)[C@@H](O)[C@@H]1N[C@H]1C=C(CO)[C@@H](O)[C@H](O)[C@H]1O (stereo partly drawn) [acarbose],"DILI +VE (5-8), DILI -VE (-4)",[1]; in vivo,+VE
same,DILI severity category,[1]; in vivo,vMost-DILI-Concern
same,DILI Score (FDA) (1-8),[2]; in vivo,5
CN(C)c1nc(N(C)C)nc(N(C)C)n1 [altretamine],DILI severity category,[1]; [5],Ambiguous DILI-concern
same,"DILI +VE (5-8), DILI -VE (-4)",[1]; [6],-VE
same,DILI Score (FDA) (1-8),[2]; [7],2
CC(C)NCC(O)COc1ccc(COCCOC(C)C)cc1 (stereo not drawn) [bisoprolol],DILI severity category,[1]; [5],Ambiguous DILI-concern
same,"DILI +VE (5-8), DILI -VE (-4)",[1]; [6],-VE
same,DILI Score (FDA) (1-8),[2]; [7],3
Nc1ccn([C@@H]2O[C@H](CO)[C@@H](O)[C@@H]2O)c(=O)n1 [cytarabine],In vivo DILI,[3]; in vivo,+VE
same,"DILI +VE (5-8), DILI -VE (-4)",[1]; in vivo,+VE
same,DILI severity category,[1]; in vivo,vMost-DILI-Concern
same,DILI Score (FDA) (1-8),[2]; in vivo,3
O=C(O)c1ccc(-n2nc(-c3ccccc3O)nc2-c2ccccc2O)cc1 [deferasirox],"DILI +VE (5-8), DILI -VE (-4)",[1]; [8],+VE
same,DILI severity category,[1]; [9],vMost-DILI-Concern
same,DILI Score (FDA) (1-8),[2]; [10],7
CC(=O)O[C@@]12CO[C@@H]1C[C@H](O)[C@@]1(C)C(=O)[C@H](O)C3=C(C)[C@@H](OC(=O)[C@H](O)[C@@H](NC(=O)OC(C)(C)C)c4ccccc4)C[C@@](O)([C@@H](OC(=O)c4ccccc4)[C@H]21)C3(C)C [docetaxel],"DILI +VE (5-8), DILI -VE (-4)",[1]; [8],+VE
same,DILI severity category,[1]; [9],vLess-DILI-Concern
same,DILI Score (FDA) (1-8),[2]; [10],8
CC[C@@H](CO)NCCN[C@@H](CC)CO [ethambutol],In vivo DILI,[3]; ref Aleo 2019,+VE
same,"DILI +VE (5-8), DILI -VE (-4)",[1]; ref Chen 2016,+VE
same,DILI severity category,[1]; ref Chen 2016,vMost-DILI-Concern
same,DILI Score (FDA) (1-8),[2]; ref Chen 2011,8
same,Partition Hybrid HRM Score,[4]; In vitro Assay,-VE
same,Ro2 Hybrid HRM Score,[4]; In vitro Assay,-VE
CCc1cccc2c3c([nH]c12)C(CC)(CC(=O)O)OCC3 (stereo not drawn) [etodolac],In vivo DILI,[3]; ref Aleo 2019,+VE
same,"DILI +VE (5-8), DILI -VE (-4)",[1]; ref Chen 2016,+VE
same,DILI severity category,[1]; ref Chen 2016,vMost-DILI-Concern
same,DILI Score (FDA) (1-8),[2]; ref Chen 2011,8
same,Ro2 Hybrid HRM Score,[4]; In vitro Assay,+VE
Nc1nc(O)c2ncn(COC(CO)CO)c2n1 [ganciclovir],DILI severity category,[1]; [5],Ambiguous DILI-concern
same,"DILI +VE (5-8), DILI -VE (-4)",[1]; [6],-VE
same,DILI Score (FDA) (1-8),[2]; [7],7
CCOC(=O)C1=C[C@@H](OC(CC)CC)[C@H](NC(C)=O)[C@@H](N)C1 [oseltamivir],DILI severity category,[1]; [5],Ambiguous DILI-concern
same,"DILI +VE (5-8), DILI -VE (-4)",[1]; [6],-VE
same,DILI Score (FDA) (1-8),[2]; [7],3
same,"Partition Hybrid HRM Score, In vitro Assay",[4]; Partition hybrid,+VE
same,"Ro2 Hybrid HRM Score, In vitro Assay",[4]; Rule of Two hybrid,-VE
C[C@]12COC(=O)C[C@@H]1CC[C@@H]1[C@@H]2CC[C@@]2(C)[C@H]1CC[C@]2(C)O [oxandrolone],"DILI +VE (5-8), DILI -VE (-4)",[1]; [11],+VE
same,DILI severity category,[1]; [12],vMost-DILI-Concern
same,DILI Score (FDA) (1-8),[2]; [13],8
CN(C)[C@@H]1C(O)=C(C(N)=O)C(=O)[C@@]2(O)C(O)=C3C(=O)c4c(O)cccc4[C@@](C)(O)[C@H]3[C@H](O)[C@@H]12 [oxytetracycline],"DILI +VE (5-8), DILI -VE (-4)",[1]; [11],-VE
same,DILI severity category,[1]; [12],Ambiguous DILI-concern
same,DILI Score (FDA) (1-8),[2]; [13],2
CC(C)(S)[C@@H](N)C(=O)O [penicillamine],"DILI +VE (5-8), DILI -VE (-4)",[1]; [11],+VE
same,DILI severity category,[1]; [12],vLess-DILI-Concern
same,DILI Score (FDA) (1-8),[2]; [13],3
C[C@]12C=CC(=O)C=C1CC[C@@H]1[C@@H]2[C@@H](O)C[C@@]2(C)[C@H]1CC[C@]2(O)C(=O)CO [prednisolone],In vivo DILI,[3]; in vivo,-VE
same,"DILI +VE (5-8), DILI -VE (-4)",[1]; in vivo,+VE
same,DILI severity category,[1]; in vivo,vLess-DILI-Concern
same,DILI Score (FDA) (1-8),[2]; in vivo,3
C[C@H](Cn1cnc2c(N)ncnc21)OCP(=O)(O)O [tenofovir],"DILI +VE (5-8), DILI -VE (-4)",[1]; [11],+VE
same,DILI severity category,[1]; [12],vLess-DILI-Concern
same,DILI Score (FDA) (1-8),[2]; [13],8
CN(C)CCOc1ccc(/C(=C(/CCCl)c2ccccc2)c2ccccc2)cc1 [toremifene],"DILI +VE (5-8), DILI -VE (-4)",[1]; [11],-VE
same,DILI severity category,[1]; [12],Ambiguous DILI-concern
same,DILI Score (FDA) (1-8),[2]; [13],3
